Where two headings read alike, the source gives them in different places.
How the values were obtained:
[1] = Aerosol tolerability analysis of low concentration dosage forms; set-up: key to Throat Irritation: 1 = none; 5 = strong
From the text: Additional observations include maintaining osmolality between about 250 to about 500 mOsmo/kg. The tolerability for formulations with an osmolalty outside this range may be adjusted with modifications in the above formulation parameters and device output and aerosol particle size characteristics.

[2] = system: LPS-induced pulmonary inflammasome model; assay: LPS-induced pulmonary inflammasome model (BAL cell counts, BAL IL-1β); assay type: in vivo, Sprague Dawley rats; conditions: for BAL IL-1β, average / BAL cells (%), EO (eosinophil), average / BAL cells (%), LM (lymphocytes), average / BAL cells (%), NP (neutrophils), average / BAL number cells, EO (eosinophil), average / BAL number cells, LM (lymphocytes), average / BAL number cells, NP (neutrophils), average: 24 hours, n = 4; for LPS-induced IL-1β (%): relative to LPS + IT saline = 100
Description: To compare the efficacy of intratracheal, direct-lung aerosol administration and oral gavage, the LPS-induced pulmonary inflammasome model was performed. Briefly, Sprague Dawley rats (200-250 grams) were administered a single dose of LPS by the intratracheal route (IT) using a intubation aerosol delivery device. All IT doses were delivered just above the first pulmonary bifurcation. Sham animals were treated with saline. […] Lungs were lavaged and collected bronchial lavage fluid (BAL) was assessed for total cell count, neutrophils, macrophage, eosinophils and lymphocytes. BAL was also assessed for IL-1b.

[3] = cited from earlier work; for AUC (0-18 hrs) / Cmax: human
[4] = 0.5 mg/kg intratracheal, single dose with LPS, BAL after 24 hours
[5] = 30 mg/kg oral gavage 2 hours before LPS (60-fold larger dose)
[6] = LPS + PO pirfenidone 30.0 mg/kg
[7] = oral 801 mg fasted-state, plasma

With `Cc1ccc(=O)n(-c2ccccc2)c1` [pirfenidone, 5-methyl-1-phenyl-2-(1H)-pyridone] the “Throat Irritation” value ([1]; citrate 5 mM, NaCl 100 mM, saccharin 0.7 mM, pH 5.5, pirfenidone 16 mg/mL, 3.7 micron) was 2, the “Throat Irritation” value ([1]; citrate 5 mM, NaCl 100 mM, saccharin 0.7 mM, pH 5.5, pirfenidone 16 mg/mL, 4.6 micron (slower output device ~0.5 mL/minute)) was 1 and the “Est. Osmolality” value ([1]; citrate 5 mM, NaCl 100 mM, saccharin 0.9 mM, pH 5.5, pirfenidone 16 mg/mL (3.2 micron entry)) was 400 mOsmo/Kg. For the same compound, the “Est. Osmolality” value ([1]; citrate 5 mM, NaCl 100 mM, saccharin 0.9 mM, pH 5.5, pirfenidone 16 mg/mL (3.7 micron entry)) was 400 mOsmo/Kg, the “Throat Irritation” value ([1]; citrate 5 mM, NaCl 100 mM, saccharin 0.9 mM, pH 5.5, pirfenidone 16 mg/mL, 3.2 micron) was 1 and the “Throat Irritation” value ([1]; citrate 5 mM, NaCl 100 mM, saccharin 0.9 mM, pH 5.5, pirfenidone 16 mg/mL, 3.7 micron) was 2. For the same compound, the “Est. Osmolality” value ([1]; citrate 5 mM, NaCl 150 mM, pH 5.5, pirfenidone 4 mg/mL (3.2 micron entry)) was 330 mOsmo/Kg, the “Est. Osmolality” value ([1]; citrate 5 mM, NaCl 150 mM, pH 5.5, pirfenidone 4 mg/mL (3.7 micron entry)) was 330 mOsmo/Kg and the “Throat Irritation” value ([1]; citrate 5 mM, NaCl 150 mM, pH 5.5, pirfenidone 4 mg/mL, 3.2 micron) was 1. For the same compound, the “Throat Irritation” value ([1]; citrate 5 mM, NaCl 150 mM, pH 5.5, pirfenidone 4 mg/mL, 3.7 micron) was 2, the “Est. Osmolality” value ([1]; citrate 5 mM, NaCl 150 mM, pH 5.5, pirfenidone 16 mg/mL) was 400 mOsmo/Kg and the “Throat Irritation” value ([1]; citrate 5 mM, NaCl 150 mM, pH 5.5, pirfenidone 16 mg/mL, 3.7 micron) was 4. For the same compound, the “Est. Osmolality” value ([1]; citrate 5 mM, NaCl 150 mM, saccharin 0.2 mM, pH 5.5, pirfenidone 4 mg/mL) was 330 mOsmo/Kg, the “Throat Irritation” value ([1]; citrate 5 mM, NaCl 150 mM, saccharin 0.2 mM, pH 5.5, pirfenidone 4 mg/mL, 3.7 micron) was 2 and the “Est. Osmolality” value ([1]; citrate 5 mM, NaCl 150 mM, saccharin 0.3 mM, pH 5.5, pirfenidone 4 mg/mL) was 330 mOsmo/Kg. For the same compound, the “Throat Irritation” value ([1]; citrate 5 mM, NaCl 150 mM, saccharin 0.3 mM, pH 5.5, pirfenidone 4 mg/mL, 3.7 micron) was 1, the “Est. Osmolality” value ([1]; citrate 5 mM, NaCl 150 mM, saccharin 0.5 mM, pH 5.5, pirfenidone 16 mg/mL) was 400 mOsmo/Kg and the “Throat Irritation” value ([1]; citrate 5 mM, NaCl 150 mM, saccharin 0.5 mM, pH 5.5, pirfenidone 16 mg/mL, 3.7 micron) was 1. The “Est. Osmolality” value ([1]; citrate 5 mM, NaCl 150 mM, saccharin 0.9 mM, pH 5.5, pirfenidone 16 mg/mL) was 400 mOsmo/Kg, the “Throat Irritation” value ([1]; citrate 5 mM, NaCl 150 mM, saccharin 0.9 mM, pH 5.5, pirfenidone 16 mg/mL, 3.7 micron) was 1 and the “Est. Osmolality” value ([1]; no buffer, NaCl 150 mM, pH ND, pirfenidone 16 mg/mL) was 375 mOsmo/Kg. The “Throat Irritation” value ([1]; no buffer, NaCl 150 mM, pH ND, pirfenidone 16 mg/mL, 3.2 micron) was 5, the “Est. Osmolality” value ([1]; no buffer, NaCl 150 mM, saccharin 0.7 mM, pH ND, pirfenidone 16 mg/mL) was 375 mOsmo/Kg and the “Throat Irritation” value ([1]; no buffer, NaCl 150 mM, saccharin 0.7 mM, pH ND, pirfenidone 16 mg/mL, 3.2 micron) was 5. The “Est. Osmolality” value ([1]; phosphate 5 mM, MgCl2 43.3 mM, pH 7, pirfenidone 16 mg/mL) was 210 mOsmo/Kg, the “Throat Irritation” value ([1]; phosphate 5 mM, MgCl2 43.3 mM, pH 7, pirfenidone 16 mg/mL, 3.7 micron) was 5 and the “Est. Osmolality” value ([1]; phosphate 5 mM, MgCl2 43.3 mM, saccharin 0.5 mM, pH 7, pirfenidone 16 mg/mL) was 210 mOsmo/Kg. For the same compound, the “Throat Irritation” value ([1]; phosphate 5 mM, MgCl2 43.3 mM, saccharin 0.5 mM, pH 7, pirfenidone 16 mg/mL, 3.7 micron) was 5, the “Est. Osmolality” value ([1]; phosphate 5 mM, NaCl 50 mM, MgCl2 43.3 mM, pH 7, pirfenidone 16 mg/mL) was 310 mOsmo/Kg and the “Throat Irritation” value ([1]; phosphate 5 mM, NaCl 50 mM, MgCl2 43.3 mM, pH 7, pirfenidone 16 mg/mL, 3.7 micron) was 4. The “Est. Osmolality” value ([1]; phosphate 5 mM, NaCl 50 mM, pH 7, pirfenidone 16 mg/mL) was 200 mOsmo/Kg, the “Throat Irritation” value ([1]; phosphate 5 mM, NaCl 50 mM, pH 7, pirfenidone 16 mg/mL, 3.7 micron) was 5 and the “Est. Osmolality” value ([1]; phosphate 5 mM, NaCl 150 mM, pH 7, pirfenidone 16 mg/mL) was 400 mOsmo/Kg. For the same compound, the “Throat Irritation” value ([1]; phosphate 5 mM, NaCl 150 mM, pH 7, pirfenidone 16 mg/mL, 3.7 micron) was 3, the “lung tissue Cmax (estimated)” value ([2]; 0.5 mg/kg IT) was ~83 mcg/gram and the “LPS-induced inflammatory cell infiltration (BAL)” value [2, 4] was “negated”. The “reduction of LPS-induced BAL IL-1β levels” value [2, 4] was 62%, the “effect on LPS-induced BAL IL-1β levels” value [2, 5] was “no effect” and the “effect on LPS-induced inflammatory cell infiltration (BAL)” value [2, 5] was “no effect”. For the same compound, the “BAL IL-1β, average” value ([2]; LPS + IT pirfenidone 0.5 mg/kg) was 36.2 pg/mL, the “BAL cells (%), EO (eosinophil), average” value ([2]; LPS + IT pirfenidone 0.5 mg/kg) was 0.7% and the “BAL cells (%), LM (lymphocytes), average” value ([2]; LPS + IT pirfenidone 0.5 mg/kg) was 1.0%. The “BAL cells (%), NP (neutrophils), average” value ([2]; LPS + IT pirfenidone 0.5 mg/kg) was 13.0%, the “BAL number cells, EO (eosinophil), average” value ([2]; LPS + IT pirfenidone 0.5 mg/kg) was 0.0 1 × 10e5 and the “BAL number cells, LM (lymphocytes), average” value ([2]; LPS + IT pirfenidone 0.5 mg/kg) was 0.1 1 × 10e5. For the same compound, the “BAL number cells, NP (neutrophils), average” value ([2]; LPS + IT pirfenidone 0.5 mg/kg) was 0.7 1 × 10e5, the “LPS-induced IL-1β (%)” value ([2]; LPS + IT pirfenidone 0.5 mg/kg) was 38% and the “BAL IL-1β, average” value [2, 6] was 105.9 pg/mL. The “BAL cells (%), EO (eosinophil), average” value [2, 6] was 0.6%, the “BAL cells (%), LM (lymphocytes), average” value [2, 6] was 0.9% and the “BAL cells (%), NP (neutrophils), average” value [2, 6] was 36.4%. The “BAL number cells, EO (eosinophil), average” value [2, 6] was 0.3 1 × 10e5, the “BAL number cells, LM (lymphocytes), average” value [2, 6] was 0.3 1 × 10e5 and the “BAL number cells, NP (neutrophils), average” value [2, 6] was 13.2 1 × 10e5. For the same compound, the “LPS-induced IL-1β (%)” value [2, 6] was 113%, the T1/2 beta ([3]; aerosol 47 mg RDD, lung tissue, from plasma T1/2, Rubino et al., 2009 fasted-state) was 2.5 h and the T1/2 beta ([3]; aerosol 47 mg RDD, plasma, Rubino et al., 2009 fasted-state) was 2.5 h. For the same compound, the “AUC (0-18 hrs)” value [3, 7] was 67700 ng·h/mL, the Cmax [3, 7] was 14.2 microgram/mL and the “AUC (0-18 hrs)” value ([3]; oral 801 mg fed-state, plasma) was 58900 ng·h/mL. The Cmax ([3]; oral 801 mg fed-state, plasma) was 7.9 microgram/mL, the T1/2 beta ([3]; oral 801 mg fasted-state, lung tissue, from plasma T1/2, Rubino et al., 2009) was 2.5 h and the T1/2 beta ([3]; oral 801 mg fasted-state, plasma, Rubino et al., 2009) was 2.5 h. For the same compound, the T1/2 beta ([3]; oral 801 mg fed-state, lung tissue, from plasma T1/2, Rubino et al., 2009) was 2.4 h and the T1/2 beta ([3]; oral 801 mg fed-state, plasma, Rubino et al., 2009) was 2.4 h.

Reference: patent US10028966B2 (Avalyn Pharma Inc., priority 2014, dated 2018)
